Measurements from patent publication US4242512A, “Novel thioamide derivatives containing a pyridazine group” (Morishita Pharmaceutical Co., Ltd., priority 1979, dated 1980).

Legend:
Acute toxicity in mice = conditions: mouse, in vivo, po, Table 2, read-out: LD50 (Table 2, head printed "50 (mg/kg) P.O. Orally")
Protocol: (§1) As illustrative evidence of the remarkable high gastric antisecretory activity of the compounds of the invention, tests were conducted on, and comparisons made with, closely similar compounds in the prior art. The following Tables 2 and 3 show the results of such tests according to previously identified techniques from the literature.
rats and acute toxicity in mice.
(§2) Effect on Shay ulceration in rats and acute toxicity in mice.

Shay ulceration in rats = test: Effect on Shay ulceration in rats; type: in vivo; conditions: for Inhibition (Shay ulceration): 10 rats; for Inhibition (Shay ulceration) / ED50: 13 hours after drug treatment; for Safety Margin LD50/ED50 (Shay ulceration): LD50 mice p.o. / ED50 Shay rats i.d., Table 3; for ED50: Rattus norvegicus, i.d., rats
Protocol: as §1, §2
Each drug was given either intraduodenally (i.d.) immediately after
pylorus ligation in a volume of 0.5 ml/100 g of body weight. The animals
were sacrificed 13 hours after drug treatment.

[1] = tested on: aspirin-induced gastric ulcers in pylorus-ligated rats; test: Effect on aspirin-induced gastric ulcers in pylorus-ligated rats; type: in vivo; conditions: for Inhibition (aspirin-induced gastric ulcers): 10 rats; for Inhibition (aspirin-induced gastric ulcers) / ED50: 7 hrs after aspirin 100 mg/kg p.o.; for Safety Margin LD50/ED50 (aspirin-induced ulcers): LD50 mice p.o. / ED50 pylorus-ligated rats i.d., Table 2; for ED50: Rattus norvegicus, i.d., pylorus-ligated rats
Protocol: as §1
Effect on aspirin-induced gastric ulcers in pylorus-ligated
Each drug was given […] intraduodenally (i.d.) immediately after pyloru
ligation in a volume of 0.5 ml/100 g of body weight. Animals were
sacrificed 7 hrs after aspirin (100 mg/kg, p.o.) administration.

| SMILES | LD50 (Acute toxicity in mice) [mg/kg] | Inhibition (Shay ulceration) (Shay ulceration in rats; 10 mg/kg i.d.) [%] | Inhibition (Shay ulceration) (Shay ulceration in rats; 30 mg/kg i.d.) [%] | Safety Margin LD50/ED50 (Shay ulceration) (Shay ulceration in rats) | ED50 (Shay ulceration in rats) [mg/kg] | Inhibition (aspirin-induced gastric ulcers) ([1]; 10 mg/kg i.d.) [%] | Inhibition (aspirin-induced gastric ulcers) ([1]; 30 mg/kg i.d.) [%] | Safety Margin LD50/ED50 (aspirin-induced ulcers) [1] | ED50 [1] [mg/kg] |
| --- | --- | --- | --- | --- | --- | --- | --- | --- | --- |
| NC(=S)C(c1ccccc1)c1cnccn1 (stereo not drawn) [U.S. Pat. No. 3,624,085 Ex. 12] | 924 | 18.3 | 57.7 | 33.00 | 28 | 15.4 | 50.8 | 30.80 | 30 |
| NC(=S)C(c1ccccc1)c1ncccn1 (stereo not drawn) [U.S. Pat. No. 3,624,085 Ex. 9] | 1200 | 28.2 | 65.0 | 46.15 | 26 | 22.3 | 74.0 | 64.86 | 18.5 |
| NC(=S)C(c1ccccc1)c1cccnn1 (stereo not drawn) [Ex. 1, 2-Phenyl-2-(3-pyridazinyl)thioacetamide] | 980 | 33.3 | 95.8 | 78.40 | 12.5 | 48.6 | 97.7 | 85.12 | 11.5 |
| Cc1ccc(C(C(N)=S)c2ccccc2)nn1 (stereo not drawn) [Ex. 2, 2-Phenyl-(6-methyl-3-pyridazinyl)thioacetomide] | 1700 | 50.0 | 91.7 | 154.54 | 11 | 3.2 | 89.0 | 80.95 | 21 |
| CCC(C(N)=S)c1ccccn1 (stereo not drawn) [U.S. Pat. No. 3,686,190 Ex. 1] | 670 | 12.0 | 46.5 | 17.70 | 34 | 11.3 | 45.7 | 12.88 | 52 |
